# From ChEMBL document CHEMBL1268934, “Design, synthesis, and subtype selectivity of 3,6-disubstituted β-carbolines at Bz/GABA(A)ergic receptors. SAR and studies directed toward agents for treatment of alcohol abuse” (Bioorg Med Chem, 2010)
# pKi: −log10 of the molar value.
# Assays:
# Assay type in all cases: cell-based, HEK293; call rule not given here
# [1] = molecular target: T1, GABA-A receptor; alpha-2/beta-3/gamma-2 (Homo sapiens, UniProt P18507+P28472+P47869); test: Displacement of [3H]flunitrazepam from human recombinant GABAA alpha-2-beta-3-gamma-2 receptor expressed in HEK cells by liquid scintillation counting
# T1 sequence (P18507 whole entry): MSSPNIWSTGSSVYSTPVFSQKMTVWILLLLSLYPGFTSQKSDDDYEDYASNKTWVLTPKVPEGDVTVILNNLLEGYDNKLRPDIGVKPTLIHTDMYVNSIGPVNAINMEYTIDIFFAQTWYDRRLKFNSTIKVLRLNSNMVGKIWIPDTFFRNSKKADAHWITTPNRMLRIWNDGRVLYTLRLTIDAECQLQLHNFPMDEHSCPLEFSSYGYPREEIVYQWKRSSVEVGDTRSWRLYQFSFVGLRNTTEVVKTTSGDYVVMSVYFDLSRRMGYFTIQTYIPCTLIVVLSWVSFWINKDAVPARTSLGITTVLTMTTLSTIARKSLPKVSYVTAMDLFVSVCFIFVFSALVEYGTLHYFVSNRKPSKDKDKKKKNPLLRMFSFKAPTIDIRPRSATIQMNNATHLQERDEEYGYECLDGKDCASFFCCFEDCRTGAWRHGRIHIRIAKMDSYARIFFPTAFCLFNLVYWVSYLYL
# T1 sequence (P28472 whole entry): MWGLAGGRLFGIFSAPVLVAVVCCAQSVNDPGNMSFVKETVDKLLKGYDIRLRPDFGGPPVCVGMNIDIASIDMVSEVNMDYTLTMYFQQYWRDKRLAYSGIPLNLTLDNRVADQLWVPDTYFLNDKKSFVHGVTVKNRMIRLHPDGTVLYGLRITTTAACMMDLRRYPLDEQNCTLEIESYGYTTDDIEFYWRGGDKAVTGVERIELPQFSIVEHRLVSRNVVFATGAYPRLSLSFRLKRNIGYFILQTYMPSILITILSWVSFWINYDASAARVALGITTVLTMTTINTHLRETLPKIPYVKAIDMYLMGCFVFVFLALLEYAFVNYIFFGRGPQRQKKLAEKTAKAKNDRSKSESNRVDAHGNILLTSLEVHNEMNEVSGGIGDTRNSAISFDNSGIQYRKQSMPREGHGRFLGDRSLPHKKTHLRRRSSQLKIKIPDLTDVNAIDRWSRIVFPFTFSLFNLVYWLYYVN
# T1 sequence (P47869 whole entry): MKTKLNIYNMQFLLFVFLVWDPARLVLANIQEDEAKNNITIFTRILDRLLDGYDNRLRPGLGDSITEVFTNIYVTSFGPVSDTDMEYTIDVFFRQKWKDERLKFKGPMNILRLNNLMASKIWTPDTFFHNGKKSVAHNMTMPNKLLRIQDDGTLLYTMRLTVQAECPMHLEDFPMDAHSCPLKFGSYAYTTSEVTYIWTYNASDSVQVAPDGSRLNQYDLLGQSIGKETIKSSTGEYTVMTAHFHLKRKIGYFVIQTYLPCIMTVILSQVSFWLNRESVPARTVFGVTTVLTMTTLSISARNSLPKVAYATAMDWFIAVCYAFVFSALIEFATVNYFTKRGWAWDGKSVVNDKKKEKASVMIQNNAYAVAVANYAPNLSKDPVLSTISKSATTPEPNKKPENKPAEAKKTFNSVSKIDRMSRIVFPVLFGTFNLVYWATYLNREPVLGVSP
# [2] = molecular target: T2, GABA-A receptor; alpha-3/beta-3/gamma-2 (Homo sapiens, UniProt P18507+P28472+P34903); test: Displacement of [3H]flunitrazepam from human recombinant GABAA alpha-3-beta-3-gamma-2 receptor expressed in HEK cells by liquid scintillation counting
# T2 sequence (P18507 whole entry): T1 sequence (P18507 whole entry)
# T2 sequence (P28472 whole entry): T1 sequence (P28472 whole entry)
# T2 sequence (P34903 whole entry): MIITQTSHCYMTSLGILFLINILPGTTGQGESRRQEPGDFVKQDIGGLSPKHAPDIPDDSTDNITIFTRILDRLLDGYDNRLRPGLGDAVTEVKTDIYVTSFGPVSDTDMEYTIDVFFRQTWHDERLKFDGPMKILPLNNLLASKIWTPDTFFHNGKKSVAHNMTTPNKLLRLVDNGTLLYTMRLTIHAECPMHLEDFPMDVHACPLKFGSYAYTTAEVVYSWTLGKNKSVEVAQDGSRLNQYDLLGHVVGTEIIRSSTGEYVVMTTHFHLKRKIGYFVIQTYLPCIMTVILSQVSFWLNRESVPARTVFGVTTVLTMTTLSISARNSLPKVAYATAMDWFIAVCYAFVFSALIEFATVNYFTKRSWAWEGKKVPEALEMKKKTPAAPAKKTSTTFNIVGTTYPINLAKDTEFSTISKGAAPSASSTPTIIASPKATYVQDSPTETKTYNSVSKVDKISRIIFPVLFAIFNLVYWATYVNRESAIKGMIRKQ
# [3] = molecular target: T3, GABA-A receptor; alpha-5/beta-3/gamma-2 (Homo sapiens, UniProt P18507+P28472+P31644); test: Displacement of [3H]flunitrazepam from human recombinant GABAA alpha-5-beta-3-gamma-2 receptor expressed in HEK cells by liquid scintillation counting
# T3 sequence (P18507 whole entry): T1 sequence (P18507 whole entry)
# T3 sequence (P28472 whole entry): T1 sequence (P28472 whole entry)
# T3 sequence (P31644 whole entry): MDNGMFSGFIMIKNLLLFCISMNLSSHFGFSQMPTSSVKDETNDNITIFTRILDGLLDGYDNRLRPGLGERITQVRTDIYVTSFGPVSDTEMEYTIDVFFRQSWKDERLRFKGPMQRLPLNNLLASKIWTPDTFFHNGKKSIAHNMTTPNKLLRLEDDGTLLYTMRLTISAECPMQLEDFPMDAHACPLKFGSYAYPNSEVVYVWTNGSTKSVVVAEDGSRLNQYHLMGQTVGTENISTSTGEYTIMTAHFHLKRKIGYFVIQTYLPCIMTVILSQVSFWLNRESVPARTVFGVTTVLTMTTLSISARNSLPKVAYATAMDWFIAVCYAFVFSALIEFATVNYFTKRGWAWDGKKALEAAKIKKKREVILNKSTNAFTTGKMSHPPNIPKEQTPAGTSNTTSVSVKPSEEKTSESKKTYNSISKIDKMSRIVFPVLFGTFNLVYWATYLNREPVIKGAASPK
# [4] = molecular target: T4, GABA-A receptor; alpha-1/beta-3/gamma-2 (Homo sapiens, UniProt P14867+P18507+P28472); test: Displacement of [3H]flunitrazepam from human recombinant GABAA alpha-1-beta-3-gamma-2 receptor expressed in HEK cells by liquid scintillation counting
# T4 sequence (P14867 whole entry): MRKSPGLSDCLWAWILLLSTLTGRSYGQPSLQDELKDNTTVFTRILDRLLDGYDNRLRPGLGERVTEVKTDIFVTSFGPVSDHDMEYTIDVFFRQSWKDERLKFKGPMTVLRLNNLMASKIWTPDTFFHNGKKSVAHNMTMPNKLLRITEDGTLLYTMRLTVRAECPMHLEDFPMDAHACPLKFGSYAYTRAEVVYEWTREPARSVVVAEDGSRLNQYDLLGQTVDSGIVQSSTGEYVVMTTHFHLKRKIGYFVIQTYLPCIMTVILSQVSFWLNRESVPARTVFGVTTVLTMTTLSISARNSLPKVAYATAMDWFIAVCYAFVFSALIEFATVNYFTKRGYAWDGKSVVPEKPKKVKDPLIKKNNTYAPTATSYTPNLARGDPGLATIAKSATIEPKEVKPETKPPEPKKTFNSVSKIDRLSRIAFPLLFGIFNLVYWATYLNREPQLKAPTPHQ
# T4 sequence (P18507 whole entry): T1 sequence (P18507 whole entry)
# T4 sequence (P28472 whole entry): T1 sequence (P28472 whole entry)
# [5] = molecular target: GABA A receptor alpha-4/beta-3/gamma-2 (Homo sapiens, UniProt P18507+P28472+P48169); test: Displacement of [3H]flunitrazepam from human recombinant GABAA alpha-4-beta-3-gamma-2 receptor expressed in HEK cells by liquid scintillation counting; settings: for Ki: hek293; for pKi: read-out: Ki
# [6] = molecular target: GABA-A receptor; alpha-6/beta-3/gamma-2 (Homo sapiens, UniProt P18507+P28472+Q16445); test: Displacement of [3H]flunitrazepam from human recombinant GABAA alpha-6-beta-3-gamma-2 receptor expressed in HEK cells by liquid scintillation counting
# GABA-A receptor; alpha-6/beta-3/gamma-2, sequence (Q16445 whole entry, one chain of several): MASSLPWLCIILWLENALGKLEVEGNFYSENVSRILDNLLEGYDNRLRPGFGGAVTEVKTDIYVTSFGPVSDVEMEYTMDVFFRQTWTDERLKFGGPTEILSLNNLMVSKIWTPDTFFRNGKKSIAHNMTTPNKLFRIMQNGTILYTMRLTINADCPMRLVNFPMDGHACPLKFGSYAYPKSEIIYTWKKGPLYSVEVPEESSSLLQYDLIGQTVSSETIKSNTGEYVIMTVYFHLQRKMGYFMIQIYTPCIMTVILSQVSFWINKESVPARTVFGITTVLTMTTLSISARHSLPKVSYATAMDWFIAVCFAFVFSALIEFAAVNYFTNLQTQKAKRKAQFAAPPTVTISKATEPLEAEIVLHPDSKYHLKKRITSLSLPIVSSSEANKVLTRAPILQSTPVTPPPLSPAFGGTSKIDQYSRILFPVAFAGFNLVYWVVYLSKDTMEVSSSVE
# GABA A receptor alpha-4/beta-3/gamma-2, sequence (P48169 whole entry, one chain of several): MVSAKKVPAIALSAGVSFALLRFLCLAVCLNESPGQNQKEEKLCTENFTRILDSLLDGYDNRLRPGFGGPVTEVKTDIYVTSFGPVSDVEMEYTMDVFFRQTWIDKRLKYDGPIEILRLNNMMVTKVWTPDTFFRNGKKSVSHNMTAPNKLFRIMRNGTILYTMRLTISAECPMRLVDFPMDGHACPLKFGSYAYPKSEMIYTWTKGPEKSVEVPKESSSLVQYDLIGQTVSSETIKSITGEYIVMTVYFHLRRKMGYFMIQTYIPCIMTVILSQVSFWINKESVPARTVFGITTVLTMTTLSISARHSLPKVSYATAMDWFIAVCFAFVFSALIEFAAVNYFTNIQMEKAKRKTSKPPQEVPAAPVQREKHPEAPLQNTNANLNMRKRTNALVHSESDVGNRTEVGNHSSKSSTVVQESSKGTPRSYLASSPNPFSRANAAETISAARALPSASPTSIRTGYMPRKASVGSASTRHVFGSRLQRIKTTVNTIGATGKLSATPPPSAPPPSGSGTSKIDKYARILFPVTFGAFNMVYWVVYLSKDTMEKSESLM
pKi [4],Compound,pKi [1],pKi [2],pKi [3],Ki [5],pKi [6],pKi [5]
8.32,CCOC(=O)c1cc2c(cn1)[nH]c1ccc(I)cc12,7.51,7.47,6.54,–,–,–
–,CC(C)CCOc1cc2c3ccccc3nc-2c[nH]1,5.52,5.52,5.52,–,5.00,–
7.59,O=C(OCC(F)(F)F)c1cc2c(cn1)[nH]c1ccc(-c3ccco3)cc12,6.84,6.93,6.90,–,–,–
6.61,CC/C=C/C=C/Oc1cc2c(cn1)[nH]c1ccccc12,6.09,6.07,–,–,–,–
7.52,CC(C)(C)OC(=O)c1ccc2[nH]c3ccc(C#Cc4ccc5[nH]c6ccc(C(=O)OC(C)(C)C)cc6c5c4)cc3c2c1,6.91,7.00,< 6.52,–,< 5.40,–
7.60,O=C(OCC(F)(F)F)c1cc2c(cn1)[nH]c1ccc(-c3ccccc3)cc12,6.86,6.90,6.52,–,–,–
–,CCC(OC(=O)c1cc2c(cn1)[nH]c1ccccc12)C(F)(F)F (centres undefined),–,–,–,Not Active,< 5.70,–
–,"CCC(C)OC(=O)c1cc2c(cn1)[nH]c1ccccc12 (single isomer, unassigned)",–,–,–,Not Active,–,–
8.00,O=C(OCC(Cl)(Cl)Cl)c1cc2c(cn1)[nH]c1ccccc12,7.48,7.37,6.72,–,–,–
6.35,C#Cc1ccc2c(c1)c1cc(C(=O)OC(C)(C)C)ncc1n2C(=O)OC(C)(C)C,–,–,–,–,–,–
8.40,O=C(OC(C(F)(F)F)C(F)(F)F)c1cc2c(cn1)[nH]c1ccccc12,8.10,7.49,6.34,–,–,–
7.66,O=C(Oc1cc(F)c(F)cc1F)c1cc2c(cn1)[nH]c1ccccc12,6.75,7.35,6.37,–,–,–
7.43,CC(C)(C)OC(=O)c1cc2c(cn1)[nH]c1ccc(-c3cccs3)cc12,6.78,6.50,5.54,Not Active,–,–
7.11,O=C(OC(C(F)(F)F)C(F)(F)F)c1cc2c(cn1)[nH]c1ccc(I)cc12,6.52,6.88,6.17,–,–,–
6.92,CC(C)(C)OC(=O)c1cc2c(cn1)[nH]c1ccc(C#CC#Cc3ccc4[nH]c5cnc(C(=O)OC(C)(C)C)cc5c4c3)cc12,5.98,5.40,–,–,–,–
–,CC[C@H](C)OC(=O)c1cc2c(cn1)[nH]c1ccccc12,–,–,–,Not Active,< 5.70,–
–,CC(C)(C)OC(=O)c1cc2c3cc(I)ccc3n(C(=O)OC(C)(C)C)c2cn1,–,–,5.73,–,–,–
7.47,CC(OC(=O)c1cc2c(cn1)[nH]c1ccccc12)c1ccccc1 (centres undefined),–,–,–,–,–,–
–,CCCCOc1cc2c(cn1)[nH]c1ccccc12,–,–,–,–,6.00,–

Compound,pKi [4],pKi [1],pKi [2],pKi [3],Ki [5],pKi [6],pKi [5]
CC(C)(C)OC(=O)c1cc2c(cn1)[nH]c1ccc(-c3ccccc3)cc12,8.44,8.69,7.35,7.12,Not Active,–,–
CC(C)(C)OC(=O)c1cc2c(cn1)[nH]c1ccc(C(C)(C)C)cc12,8.56,8.05,7.61,8.13,–,–,–
CC(C)(C)OC(=O)c1cc2c(cn1)[nH]c1ccc(-c3ccco3)cc12,8.62,7.89,7.56,6.79,Not Active,–,–
C#Cc1ccc2[nH]c3cnc(C(=O)OC(C)(C)C)cc3c2c1,9.01,–,–,–,–,5.70,–
CC(C)(C)OC(=O)c1cc2c(cn1)[nH]c1ccc(I)cc12,7.84,7.35,6.91,7.19,–,< 5.40,< 5.40
CCOC(=O)c1cc2c(cn1)[nH]c1ccc(C#C[Si](C)(C)C)cc12,8.36,8.35,8.25,7.33,–,–,–
C[C@@H](OC(=O)c1cc2c(cn1)[nH]c1ccccc12)C(F)(F)F,7.57,6.46,6.34,5.73,–,< 5.70,< 5.52
CC(C)(C)OC(=O)c1cc2c(cn1)[nH]c1ccc(C#C[Si](C)(C)C)cc12,8.17,7.52,7.44,6.97,–,–,–
O=C(OCC(F)(F)F)c1cc2c(cn1)[nH]c1ccc(I)cc12,7.92,7.41,7.33,6.91,–,–,–
C#Cc1ccc2[nH]c3cnc(C(=O)OCC(F)(F)F)cc3c2c1,8.35,7.35,7.37,6.91,–,–,–
CC(C)(C)OC(=O)c1cc2c(cn1)[nH]c1ccc(F)cc12,8.79,8.34,7.83,8.34,–,–,–
O=C(OCC(F)(F)F)c1cc2c(cn1)[nH]c1ccc(-c3cccs3)cc12,8.04,7.89,7.14,6.35,–,–,–
